Source: PMC3813382 (The Journal of General Physiology, 2013)
Where a chain is given by its changes, count along the chain named. “Also recorded” adds a separate entry of the source.

Legend:
WT Slo2.1 channels = biological target: T1, WT Slo2.1 channels (Homo sapiens, UniProt Q6UVM3); experiment: Activation of ISlo2.1 by NFA, two-electrode voltage clamp in oocytes; type: cell-based
T1 sequence (Q6UVM3 1-1135): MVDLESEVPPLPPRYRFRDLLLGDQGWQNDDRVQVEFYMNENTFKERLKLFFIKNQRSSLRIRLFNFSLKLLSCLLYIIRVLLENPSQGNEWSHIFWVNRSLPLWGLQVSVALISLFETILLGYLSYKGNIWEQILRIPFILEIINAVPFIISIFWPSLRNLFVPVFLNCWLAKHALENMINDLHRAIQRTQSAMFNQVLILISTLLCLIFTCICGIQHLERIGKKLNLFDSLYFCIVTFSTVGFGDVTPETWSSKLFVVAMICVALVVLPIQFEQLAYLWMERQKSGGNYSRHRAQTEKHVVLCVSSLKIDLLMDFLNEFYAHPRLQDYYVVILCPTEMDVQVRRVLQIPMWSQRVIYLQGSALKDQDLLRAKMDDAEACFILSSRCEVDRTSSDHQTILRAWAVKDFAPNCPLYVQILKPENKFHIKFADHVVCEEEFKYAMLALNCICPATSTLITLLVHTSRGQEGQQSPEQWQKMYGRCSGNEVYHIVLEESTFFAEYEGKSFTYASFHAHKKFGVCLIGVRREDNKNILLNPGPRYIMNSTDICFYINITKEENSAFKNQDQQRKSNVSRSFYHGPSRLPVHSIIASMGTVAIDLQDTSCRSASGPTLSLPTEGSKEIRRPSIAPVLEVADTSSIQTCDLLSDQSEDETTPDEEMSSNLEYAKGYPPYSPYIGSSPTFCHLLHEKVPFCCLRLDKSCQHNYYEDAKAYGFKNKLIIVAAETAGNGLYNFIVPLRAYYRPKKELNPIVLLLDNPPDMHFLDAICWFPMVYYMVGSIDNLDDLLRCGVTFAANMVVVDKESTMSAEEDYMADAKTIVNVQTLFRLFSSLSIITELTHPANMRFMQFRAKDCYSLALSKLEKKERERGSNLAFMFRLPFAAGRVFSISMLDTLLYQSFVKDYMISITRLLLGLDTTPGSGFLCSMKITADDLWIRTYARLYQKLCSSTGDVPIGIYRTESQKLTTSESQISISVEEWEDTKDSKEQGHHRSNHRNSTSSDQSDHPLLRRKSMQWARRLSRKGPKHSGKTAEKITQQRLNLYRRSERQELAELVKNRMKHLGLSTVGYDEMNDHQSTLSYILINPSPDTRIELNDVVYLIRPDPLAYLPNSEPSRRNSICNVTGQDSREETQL

[1] = test system: endogenous currents present in uninjected oocytes; experiment: Effect of NFA on uninjected oocytes; type: cell-based, Xenopus laevis
M262A Slo2.1 channels = biological target: T2, M262A Slo2.1 channels (Homo sapiens, UniProt Q6UVM3, M262A); experiment: Activation of ISlo2.1 by NFA, two-electrode voltage clamp in oocytes; type: cell-based
T2 sequence (Q6UVM3 1-1135 M262A): T1 sequence (Q6UVM3 1-1135) with M262A

O=C(O)c1cccnc1Nc1cccc(C(F)(F)F)c1 [NFA, niflumic acid]
EC50 (WT Slo2.1 channels): 2100 ± 100 µM
time to peak response of ISlo2.1 during repetitive pulsing (WT Slo2.1 channels; 6 mM NFA, oocytes injected with ≤1 ng WT cRNA): ~3 min
effect on endogenous currents in uninjected oocytes ([1]; 1 mM NFA, I-Vt relationships): reduced
effect on endogenous currents in uninjected oocytes ([1]; 6 mM NFA, I-Vt relationships): increased; also recorded: activated a relatively small endogenous current
effect on endogenous currents in uninjected oocytes ([1]; NFA at concentrations up to 1 mM): slightly reduced
EC50 (M262A Slo2.1 channels): 660 ± 130 µM
Hill coefficient nH of NFA activation (M262A Slo2.1 channels; M262A): 1.4 ± 0.06
